Laboratory results: paper PMC3701070 (PLoS ONE, 2013)

Assays:
Assay in all cases: Cell growth assay
Format in all cases: cell-based
SK-BR-3 = details: Homo sapiens, 72 h; SK-BR-3, RAF WT, RAS WT, 3-day; read-out: gIC50
Procedure: (§1) Growth was measured with CellTiter-Glo® (Promega) reagent per the manufacturer’s protocol, using a PerkinElmer EnVision™ reader at t = 0 and 72 h. IC50 values for cell growth inhibition (gIC50) were determined.
(§2) (PDF) Click here for additional data file.

CaOV3 = details: Homo sapiens, Caov-3, 72 h; CaOV3, RAF WT, RAS WT, 3-day; read-out: gIC50
Procedure: as §1, §2

NCI-H716 = details: Homo sapiens, 72 h; NCI-H716, RAF WT, RAS WT, 3-day; read-out: gIC50
Procedure: as §1, §2

SNU-398 = details: Homo sapiens, 72 h; SNU-398, RAF WT, RAS WT, 3-day; read-out: gIC50
Procedure: as §1, §2

MiaPaCa = details: Homo sapiens, MIA PaCa-2, 72 h, RAF WT, RAS WT, 3-day, read-out: gIC50
Procedure: as §1, §2

NCI-H630 = details: Homo sapiens, 72 h; NCI-H630, RAF WT, RAS WT, 3-day; read-out: gIC50
Procedure: as §1, §2

NCI-H146 = details: Homo sapiens, 72 h; NCI-H146, RAF WT, RAS WT, 3-day; read-out: gIC50
Procedure: as §1, §2

DOTC 24510 = details: Homo sapiens, DoTc2-4510, 72 h; DOTC 24510, RAF WT, RAS WT, 3-day; read-out: gIC50
Procedure: as §1, §2

HCC-1954 = details: Homo sapiens, HCC1954, 72 h; HCC-1954, RAF WT, RAS WT, 3-day; read-out: gIC50
Procedure: as §1, §2

CAL-27 = details: Homo sapiens, 72 h; CAL-27, RAF WT, RAS WT, 3-day; read-out: gIC50
Procedure: as §1, §2

NCI-H82 = details: Homo sapiens, 72 h; NCI-H82, RAF WT, RAS WT, 3-day; read-out: gIC50
Procedure: as §1, §2

NCI-H157 = details: Homo sapiens, 72 h; NCI-H157, RAF WT, RAS WT, 3-day; read-out: gIC50
Procedure: as §1, §2

LS-174T = details: Homo sapiens, LS174T, 72 h, RAF WT, KRAS(G12D), 3-day, read-out: gIC50
Procedure: as §1, §2

SCC-12 = details: Homo sapiens, SCC12, 72 h; SCC-12, RAF WT, RAS WT, 3-day; read-out: gIC50
Procedure: as §1, §2

C32TG = details: Homo sapiens, 72 h, BRAF(V600E), RAS WT, 3-day, read-out: gIC50
Procedure: as §1, §2

Colo704 = details: Homo sapiens, COLO 704, 72 h; Colo704, RAF WT, RAS WT, 3-day; read-out: gIC50
Procedure: as §1, §2

NCI-H460 = details: Homo sapiens, 72 h; NCI-H460, RAF WT, KRAS(Q61H), 3-day; read-out: gIC50
Procedure: as §1, §2

CHL-1 = details: Homo sapiens, 72 h; CHL-1, RAF WT, RAS WT, 3-day; read-out: gIC50
Procedure: as §1, §2

LS1034 = details: Homo sapiens, LS-1034, 72 h; LS1034, RAF WT, KRAS(A146T), 3-day; read-out: gIC50
Procedure: as §1, §2

NCI-H358 = details: Homo sapiens, 72 h; NCI-H358, RAF WT, RAS WT, 3-day; read-out: gIC50
Procedure: as §1, §2

A427 = details: Homo sapiens, A-427, 72 h; A427, RAF WT, RAS WT, 3-day; read-out: gIC50
Procedure: as §1, §2

BC-3 = details: Homo sapiens, 72 h; BC-3, RAF WT, RAS WT, 3-day; read-out: gIC50
Procedure: as §1, §2

RKO = details: Homo sapiens, 72 h, BRAF(V600E), RAS WT, 3-day, read-out: gIC50
Procedure: as §1, §2

MC/CAR = details: Homo sapiens, 72 h, RAF WT, RAS WT, 3-day, read-out: gIC50
Procedure: as §1, §2

NCI-ADR/RES = details: Homo sapiens, 72 h, RAF WT, RAS WT, 3-day, read-out: gIC50
Procedure: as §1, §2

UACC-62 = details: Homo sapiens, 72 h; UACC-62, BRAF(V600E), RAS WT, 3-day; read-out: gIC50
Procedure: as §1, §2

SKOV-3 = details: Homo sapiens, SK-OV-3, 72 h; SKOV-3, RAF WT, RAS WT, 3-day; read-out: gIC50
Procedure: as §1, §2

A204 = details: Homo sapiens, 72 h; A204, RAF WT, RAS WT, 3-day; read-out: gIC50
Procedure: as §1, §2

BT-20 = details: Homo sapiens, 72 h; BT-20, RAF WT, RAS WT, 3-day; read-out: gIC50
Procedure: as §1, §2

SW900 = details: Homo sapiens, 72 h; SW900, RAF WT, RAS WT, 3-day; read-out: gIC50
Procedure: as §1, §2

CAL-62 = details: Homo sapiens, 72 h; CAL-62, RAF WT, RAS WT, 3-day; read-out: gIC50
Procedure: as §1, §2

## CC(C)(C)c1nc(-c2cccc(NS(=O)(=O)c3c(F)cccc3F)c2F)c(-c2ccnc(N)n2)s1 [dabrafenib]
SK-BR-3
  IC50: > 10 µM
CaOV3
  IC50: > 10 µM
NCI-H716
  IC50: > 10 µM
SNU-398
  IC50: > 10 µM
MiaPaCa
  IC50: > 10 µM
NCI-H630
  IC50: > 10 µM
NCI-H146
  IC50: > 10 µM
DOTC 24510
  IC50: > 10 µM
HCC-1954
  IC50: > 10 µM
CAL-27
  IC50: > 10 µM
NCI-H82
  IC50: > 10 µM
NCI-H157
  IC50: > 10 µM
LS-174T
  IC50: > 10 µM
SCC-12
  IC50: > 10 µM
C32TG
  IC50: 0.001 µM
Colo704
  IC50: > 10 µM
NCI-H460
  IC50: > 10 µM
CHL-1
  IC50: > 10 µM
LS1034
  IC50: > 10 µM
NCI-H358
  IC50: > 10 µM
A427
  IC50: > 10 µM
BC-3
  IC50: 0.277 µM
RKO
  IC50: 2.52 µM
MC/CAR
  IC50: 1 µM
NCI-ADR/RES
  IC50: > 10 µM
UACC-62
  IC50: 0.001 µM
SKOV-3
  IC50: > 10 µM
A204
  IC50: > 10 µM
BT-20
  IC50: > 10 µM
SW900
  IC50: > 10 µM
CAL-62
  IC50: > 10 µM
